# Measurements taken from the supplement of paper PMC11208160.
# Test: recombinant barcode read abundance after kanamycin selection (control-corrected) (log10(CPM+1)); higher = more efficient recombination; sequences stand for … in AGTGCAGAGAAAATCGGCCAGTTTTCTCTGCCTGCAGTCCGCATGCCGT…AGATTTATGCAGCGGACTGCCTTTCTCCCAAAGTGATAAACCGGACAGTATCATGGACCGGTTTTCCCGGTAATCCGTATTTGCAAGGTTGGTTTCACT; site = the 11-nt target
# Method in brief: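 A vector carrying a T7-inducible recombinase and the last 73 bp of the bridge RNA received, by Gibson cloning, oligos encoding a promoter, target, barcode and the first 104 bridge RNA bases under J23119. The pooled constructs entered E. coli together with a donor plasmid by electroporation. Selection used chloramphenicol/ampicillin/kanamycin with 0.1 mM IPTG, with chloramphenicol/ampicillin LB agar as the control, each in two replicates. Recombination efficiency is the averaged, control-corrected counts-per-million of barcodes at recombinant junctions, reported as log10(CPM+1).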
# 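Further: IS621 recombinase and bridge RNA in Escherichia coli cells.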
row,Sequence,recombinant barcode read abundance (log10)
1,TATTGGCCTTGGGTTCTAACCTGTTGCGT (site ACGACTACTCG),0.0203
2,TATTGGCCTTGGGTTCTAACCTGTTGCGT (site TATTGGCCTAC),0.202
3,TATTTCTCTTGGGTTCTAACCTGTTGCCT (site AATTTCTCTAG),0.0527
4,TATTTCTCTTGGGTTCTAACCTGTTGCCT (site CATTTCTCTAG),0.0799
5,TATTTCTCTTGGGTTCTAACCTGTTGCCT (site GATTTCTCTAG),0.0942
6,TATTTCTCTTGGGTTCTAACCTGTTGCCT (site TATTTCTCTAG),0.157
7,TATTTGCCTTGGGTTCTAACCTGTTGCTG (site GCACCTGCTAG),0.183
8,TATTTGCCTTGGGTTCTAACCTGTTGCTG (site TATTTGCCTCA),0.0916
9,TCAAAGCCTTGGGTTCTAACCTGTTGCTG (site TCAAAGCCTCA),0.252
10,TCAAAGCCTTGGGTTCTAACCTGTTGCTG (site TCACAGCCTCA),0.204
11,TCAAAGCCTTGGGTTCTAACCTGTTGCTG (site TCAGAGCCTCA),0.372
12,TCAAAGCCTTGGGTTCTAACCTGTTGCTG (site TCATAGCCTCA),0.217
13,TCAAGACCTTGGGTTCTAACCTGTTGCCT (site TCAAGACCTAG),0.617
14,TCAAGACCTTGGGTTCTAACCTGTTGCCT (site TCAAGACCTCG),0.0935
15,TCACAGCCTTGGGTTCTAACCTGTTGCTG (site TCAAAGCCTCA),0.106
16,TCACAGCCTTGGGTTCTAACCTGTTGCTG (site TCACAGCCTCA),0.476
17,TCACAGCCTTGGGTTCTAACCTGTTGCTG (site TCAGAGCCTCA),0.176
18,TCACAGCCTTGGGTTCTAACCTGTTGCTG (site TCATAGCCTCA),0.178
19,TCACAGTCTTGGGTTCTAACCTGTTGCCT (site TAACACTCTAG),0.0324
20,TCACAGTCTTGGGTTCTAACCTGTTGCCT (site TCACAGTCTAG),1.59
21,TCACATGCTTGGGTTCTAACCTGTTGCCT (site TCACATGCTAG),1.28
22,TCACATGCTTGGGTTCTAACCTGTTGCCT (site TCACCTGCTAG),0.0279

row,Sequence,recombinant barcode read abundance (log10)
1,TCACATGCTTGGGTTCTAACCTGTTGCCT (site TCACGTGCTAG),0.179
2,TCACATGCTTGGGTTCTAACCTGTTGCCT (site TCACTTGCTAG),0.119
3,TCACATTCTTGGGTTCTAACCTGTTGCCT (site TCAAATTCTAG),0.228
4,TCACATTCTTGGGTTCTAACCTGTTGCCT (site TCACATTCTAG),0.31
5,TCACATTCTTGGGTTCTAACCTGTTGCCT (site TCAGATTCTAG),0.183
6,TCACATTCTTGGGTTCTAACCTGTTGCCT (site TCATATTCTAG),0.155
7,TCAGAGCCTTGGGTTCTAACCTGTTGCTG (site TCAAAGCCTCA),0.025
8,TCAGAGCCTTGGGTTCTAACCTGTTGCTG (site TCACAGCCTCA),0.0728
9,TCAGAGCCTTGGGTTCTAACCTGTTGCTG (site TCAGAGCCTCA),1.28
10,TCAGAGCCTTGGGTTCTAACCTGTTGCTG (site TCATAGCCTCA),0.0059
11,TCAGGAGCTTGGGTTCTAACCTGTTGCAG (site TCAGGAGCTCC),0.0921
12,TCAGGAGCTTGGGTTCTAACCTGTTGCAG (site TCAGGAGCTCT),1.57
13,TCATTGACTTGGGTTCTAACCTGTTGCCT (site TCATTGACTAG),0.622
14,TCATTGACTTGGGTTCTAACCTGTTGCCT (site TTATTCACTAG),0.0739
15,TCCAAATCTTGGGTTCTAACCTGTTGCCT (site AGACTGACTCC),0.109
16,TCCAAATCTTGGGTTCTAACCTGTTGCCT (site TCCAAATCTAG),0.317
17,TCCAACCCTTGGGTTCTAACCTGTTGCAG (site TCCAAACCTCT),0.066
18,TCCAACCCTTGGGTTCTAACCTGTTGCAG (site TCCAACCCTCT),1.69
19,TCCAACCCTTGGGTTCTAACCTGTTGCAG (site TCCAAGCCTCT),0.0523
20,TCCAACCCTTGGGTTCTAACCTGTTGCAG (site TCCAATCCTCT),0.0309
21,TCCAACCCTTGGGTTCTAACCTGTTGCTG (site GCCAAGCCTCA),0.0799
22,TCCAACCCTTGGGTTCTAACCTGTTGCTG (site TCCAACCCTCA),1.65

row,Sequence,recombinant barcode read abundance (log10)
1,TCCAACCCTTGGGTTCTAACCTGTTGCTT (site CAGGGGACTGT),0.0296
2,TCCAACCCTTGGGTTCTAACCTGTTGCTT (site TCCAACCCTAA),0.391
3,TCCAACTCTTGGGTTCTAACCTGTTGCAC (site CATCCTACTAG),0.0443
4,TCCAACTCTTGGGTTCTAACCTGTTGCAC (site TCCAACTCTGT),0.903
5,TCCAAGGCTTGGGTTCTAACCTGTTGCTA (site CTGCGTACTCG),0.0788
6,TCCAAGGCTTGGGTTCTAACCTGTTGCTA (site TCCAAGGCTTA),0.275
7,TCCAATACTTGGGTTCTAACCTGTTGCCG (site TCCAACACTCG),0.0602
8,TCCAATACTTGGGTTCTAACCTGTTGCCG (site TCCAATACTCG),0.269
9,TCCAGCTCTTGGGTTCTAACCTGTTGCCT (site ACCAGATCTAG),0.0273
10,TCCAGCTCTTGGGTTCTAACCTGTTGCCT (site TCCAGCTCTAG),0.631
11,TCCAGGGCTTGGGTTCTAACCTGTTGCCT (site TCCAGGGCTAG),0.185
12,TCCAGGGCTTGGGTTCTAACCTGTTGCCT (site TCCTGGCCTAG),0.0786
13,TCCAGTACTTGGGTTCTAACCTGTTGCAT (site TCCAGTACTAT),0.351
14,TCCAGTACTTGGGTTCTAACCTGTTGCAT (site TCCCGTACTAT),0.0322
15,TCCAGTACTTGGGTTCTAACCTGTTGCAT (site TCCGGTACTAT),0.564
16,TCCAGTACTTGGGTTCTAACCTGTTGCAT (site TCCTGTACTAT),0.105
17,TCCCATACTTGGGTTCTAACCTGTTGCGA (site CTTGGGTCTAT),0.0603
18,TCCCATACTTGGGTTCTAACCTGTTGCGA (site TCCCATACTTC),1.57
19,TCCCATCCTTGGGTTCTAACCTGTTGCCT (site TCCCATACTAG),0.0689
20,TCCCATCCTTGGGTTCTAACCTGTTGCCT (site TCCCATCCTAG),0.757
21,TCCCATCCTTGGGTTCTAACCTGTTGCCT (site TCCCATGCTAG),0.0237
22,TCCCATCCTTGGGTTCTAACCTGTTGCCT (site TCCCATTCTAG),0.592

row,Sequence,recombinant barcode read abundance (log10)
1,TCCCATCCTTGGGTTCTAACCTGTTGCGT (site TCCCATCCTAC),2.38
2,TCCCATCCTTGGGTTCTAACCTGTTGCGT (site TCCTATCCTAC),0.0583
3,TCCCGTACTTGGGTTCTAACCTGTTGCAT (site TCCAGTACTAT),0.382
4,TCCCGTACTTGGGTTCTAACCTGTTGCAT (site TCCCGTACTAT),0.43
5,TCCCGTACTTGGGTTCTAACCTGTTGCAT (site TCCGGTACTAT),0.0638
6,TCCCGTACTTGGGTTCTAACCTGTTGCAT (site TCCTGTACTAT),0.159
7,TCCCTATCTTGGGTTCTAACCTGTTGCCT (site TACCTATCTAG),0.223
8,TCCCTATCTTGGGTTCTAACCTGTTGCCT (site TCCCTATCTAG),0.758
9,TCCCTATCTTGGGTTCTAACCTGTTGCCT (site TGCCTATCTAG),0.0386
10,TCCCTATCTTGGGTTCTAACCTGTTGCCT (site TTCCTATCTAG),0.0651
11,TCCGACCCTTGGGTTCTAACCTGTTGCAC (site TCCGACCCTGT),2.54
12,TCCGACCCTTGGGTTCTAACCTGTTGCAC (site TCCGTCCCTAT),0.0486
13,TCCGAGACTTGGGTTCTAACCTGTTGCCG (site TCCGAGACTAG),0.541
14,TCCGAGACTTGGGTTCTAACCTGTTGCCG (site TCCGAGACTCG),1.93
15,TCCGAGACTTGGGTTCTAACCTGTTGCCG (site TCCGAGACTGG),0.0458
16,TCCGAGACTTGGGTTCTAACCTGTTGCCG (site TCCGAGACTTG),0.0796
17,TCCGATTCTTGGGTTCTAACCTGTTGCGT (site GCCTATTCTAC),0.19
18,TCCGATTCTTGGGTTCTAACCTGTTGCGT (site TCCGATTCTAC),1.7
19,TCCGCTACTTGGGTTCTAACCTGTTGCCT (site TCCGCTACTAG),0.0438
20,TCCGCTACTTGGGTTCTAACCTGTTGCCT (site TCCGCTCCTAG),0.0689
